Test results as given in patent publication US20100324087A1, “COMBINED USE OF ANGIOGENESIS INHIBITOR AND TAXANE” (EISAI R&D MANAGEMENT CO., LTD., priority 2008, published 2010).

System: Human non-small-cell lung cancer cell line A549
Test: Combination use of E7080 and docetaxel in subcutaneous transplanted models (in vivo) of A549
Conditions: alone, A549 subcutaneous transplant, nude mouse
Protocol: Human non-small-cell lung cancer cell line A549 (purchased from Dainippon Sumitomo Pharma Co., Ltd) was cultured in RPMI1640 (containing 10% FBS) in a 5% carbon dioxide gas incubator at 37° C. to about 80% confluence, and then the cells were treated with trypsin-EDTA and then collected. A 1×10^8 cells/mL suspension was prepared with a phosphate buffer, which was further added with an equivalent amount of matrigel matrix to give a 5×10^7 cells/mL suspension, and each 0.1 mL of the resulting cell suspension was subcutaneously transplanted to a nude mouse at the side of its body. Fourteen days after the transplantation, 4-(3-chloro-4-(cyclopropylaminocarbonyl)aminophenoxy)-7-methoxy-6-quinolinecarboxamide (hereinafter, also referred to as “E7080”) was orally administered for 10 or 30 mg/kg, once a day for four weeks, while 15 mg/kg of docetaxel was intravenously administered alone or in combination every four days for three times. The major and minor axes of tumors were measured with Digimatic caliper (Mitsutoyo Corporation), and tumor volumes and relative tumor volumes were calculated according to the following formulae:
Tumor Volume (TV)=Major axis of tumor (mm)×(Minor axis of tumor)^2 (mm^2)/2
Relative Tumor Volume (RTV)=Tumor volume on measurement day/Tumor volume on the first administration day.

| SMILES | Relative tumor volume on Day 29, Average ± standard deviation (Docetaxel 15 mg/kg intravenously every four days for three times) | Relative tumor volume on Day 29, Average ± standard deviation (E7080 10 mg/kg orally once a day for four weeks) | Relative tumor volume on Day 29, Average ± standard deviation (E7080 30 mg/kg orally once a day for four weeks) |
| --- | --- | --- | --- |
| CC(=O)O[C@@]12CO[C@@H]1C[C@H](O)[C@@]1(C)C(=O)[C@H](O)C3=C(C)[C@@H](OC(=O)[C@H](O)[C@@H](NC(=O)OC(C)(C)C)c4ccccc4)C[C@@](O)([C@@H](OC(=O)c4ccccc4)[C@H]21)C3(C)C [Docetaxel, docetaxel, reference compound] | 1.48 ± 0.29 | – | – |
| COc1cc2nccc(Oc3ccc(NC(=O)NC4CC4)c(Cl)c3)c2cc1C(N)=O [E7080, 4-(3-chloro-4-(cyclopropylaminocarbonyl)aminophenoxy)-7-methoxy-6-quinolinecarboxamide] | – | 1.47 ± 0.16 | 1.14 ± 0.30 |
